# Target: Acetylcholinesterase (Homo sapiens, UniProt P22303)
# Assay: Inhibition of acetylcholinesterase (unknown origin) assessed as inhibition of acetylcholine hydrolysis after 30 mins by Ellmann's method
# Acetylcholinesterase, sequence (P22303 whole entry): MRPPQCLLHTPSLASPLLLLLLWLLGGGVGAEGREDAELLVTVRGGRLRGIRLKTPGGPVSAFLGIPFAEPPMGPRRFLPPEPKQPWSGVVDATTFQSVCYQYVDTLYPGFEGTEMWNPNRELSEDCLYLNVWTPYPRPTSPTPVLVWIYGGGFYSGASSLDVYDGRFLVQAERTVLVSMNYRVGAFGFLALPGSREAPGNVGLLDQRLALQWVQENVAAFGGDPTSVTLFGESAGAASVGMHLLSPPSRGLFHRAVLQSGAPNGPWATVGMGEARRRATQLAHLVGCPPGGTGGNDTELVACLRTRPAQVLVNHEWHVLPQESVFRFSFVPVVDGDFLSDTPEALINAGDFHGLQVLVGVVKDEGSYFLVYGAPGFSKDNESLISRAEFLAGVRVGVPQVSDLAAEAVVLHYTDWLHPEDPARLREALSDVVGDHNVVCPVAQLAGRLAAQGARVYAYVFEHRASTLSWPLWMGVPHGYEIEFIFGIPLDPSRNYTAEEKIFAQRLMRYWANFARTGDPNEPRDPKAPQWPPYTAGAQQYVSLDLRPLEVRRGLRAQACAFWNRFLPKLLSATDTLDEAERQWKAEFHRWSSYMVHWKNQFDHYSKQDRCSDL
row,SMILES,IC50 [µM]
1,C/C=C1\[C@H]2C=C(C)C[C@]1(N[C@H]1OC(=O)C3=C4CC(C)(C)C[C@H]4[C@@H](C)[C@@H](O)C[C@]31OC)c1ccc(=O)[nH]c1C2,0.99
2,C/C=C1\[C@H]2C=C(C)C[C@]1(N[C@H]1OC(=O)C3=C4CC(C)(C)C[C@H]4[C@@H](C)[C@@H](O)C[C@]31O)c1ccc(=O)[nH]c1C2,2.17
3,C/C=C1\[C@H]2C=C(C)C[C@]1(NC1OCC3=C4CC(C)(C)C[C@H]4[C@@H](C)[C@H](O)CC31O)c1ccc(=O)[nH]c1C2 (stereo not given in full),0.11
4,C/C=C1\[C@H]2C=C(C)C[C@]1(NC1OCC3=C4CC(C)(C)[C@H](O)[C@H]4[C@@H](C)CCC31O)c1ccc(=O)[nH]c1C2 (stereo not given in full),0.06
5,C/C=C1/[C@@H]2Cc3[nH]c(=O)ccc3[C@@]1(N)C[C@]1(C)O[C@H]21,12.1
